{
  "source": "ChEMBL document CHEMBL5120814",
  "about": "“Molecular Networking-Based Screening Led to the Discovery of a Cyclic Heptadepsipeptide from an Endolichenic Xylaria sp” (J Nat Prod, 2022)",
  "key": {"[1]": {"system": "BT-549", "assay": "Cytotoxicity against human BT-549 cells assessed as inhibition of cell proliferation incubated for 48 hrs by MTT assay", "assay_type": "functional, cell-based", "conditions": "BT-549, 48 h"}, "[2]": {"system": "BT-549", "assay": "Induction of cell cycle arrest in human BT-549 cells assessed as accumulation at G2/M phase at 5 uM incubated for 24 hrs by propidium iodide staining based flow cytometry (reference value: 22.59%)", "assay_type": "functional"}, "[3]": {"assay": "Cytotoxicity against human HMLE cells assessed as inhibition of cell proliferation incubated for 48 hrs by MTT assay", "assay_type": "toxicity, cell-based"}, "[4]": {"system": "BT-549", "assay": "Potency index, ratio of cisplatin IC50 to test compound IC50 for cytotoxicity against human BT-549 cells", "assay_type": "functional"}, "[5]": {"system": "HT-29", "assay": "Cytotoxicity against human HT-29 cells assessed as inhibition of cell proliferation incubated for 48 hrs by MTT assay", "assay_type": "functional, cell-based", "conditions": "HT-29, 48 h"}, "[6]": {"system": "BT-549", "assay": "Induction of cell cycle arrest in human BT-549 cells assessed as accumulation at S phase at 5 uM incubated for 24 hrs by propidium iodide staining based flow cytometry (reference value: 50.87%)", "assay_type": "functional"}, "[7]": {"system": "NCI-H1299", "assay": "Cytotoxicity against human NCI-H1299 cells assessed as inhibition of cell proliferation incubated for 48 hrs by MTT assay", "assay_type": "functional, cell-based", "conditions": "NCI-H1299, 48 h"}, "[8]": {"assay": "Selectivity ratio of IC50 for cytotoxicity against human HMLE cells to IC50 for cytotoxicity against human BT-549 cells", "assay_type": "toxicity, cell-based", "conditions": "HMLE cells and BT-549 cells, read-out: Ratio IC50"}, "[9]": {"system": "RKO", "assay": "Cytotoxicity against human RKO cells assessed as inhibition of cell proliferation incubated for 48 hrs by MTT assay", "assay_type": "functional, cell-based"}, "[10]": {"system": "PC-9", "assay": "Cytotoxicity against human PC-9 cells assessed as inhibition of cell proliferation incubated for 48 hrs by MTT assay", "assay_type": "functional, cell-based", "conditions": "PC-9, 48 h"}, "[11]": {"system": "BT-549", "assay": "Induction of cell cycle arrest in human BT-549 cells assessed as accumulation at G0/G1 phase at 5 uM incubated for 24 hrs by propidium iodide staining based flow cytometry (reference value: 22.97%)", "assay_type": "functional"}},
  "data": [
    {"smiles": "CC[C@H](C)[C@H]1NC(=O)[C@@H](CC(C)C)NC(=O)[C@@H](CC(C)C)N(C)C(=O)[C@@H]2CCCN2C(=O)[C@H](CC(C)C)NC(=O)[C@H](Cc2ccccc2)OC(=O)[C@@H]2CCCN2C1=O", "values": [
      {"measurement": "IC50", "setting": "[1]", "result": 2500, "unit": "nM"},
      {"measurement": "Activity", "setting": "[2]", "result": 18.34, "unit": "%"},
      {"measurement": "IC50 at 48 h", "setting": "[3]", "result": 7.3, "unit": "µM"},
      {"measurement": "Ratio IC50", "setting": "[4]", "result": 3.4},
      {"measurement": "IC50", "setting": "[5]", "result": 2500, "unit": "nM"},
      {"measurement": "Activity", "setting": "[6]", "result": 32.49, "unit": "%"},
      {"measurement": "IC50", "setting": "[7]", "result": 2500, "unit": "nM"},
      {"measurement": "selectivity ratio", "setting": "[8]", "result": 3},
      {"measurement": "IC50", "setting": "[9]", "result": 9.5, "unit": "µM"},
      {"measurement": "IC50", "setting": "[10]", "result": 2500, "unit": "nM"},
      {"measurement": "Activity", "setting": "[11]", "result": 41.84, "unit": "%"}
    ]}
  ]
}
